The source of these data is US9937182B2, “Therapeutic strategies for the treatment of preeclampsia” (UNIVERSITY OF IOWA RESEARCH FOUNDATION, priority 2013, dated 2018).

The test relates to C57Bl/6J female mice. Put plainly: Vasopressin infusion during pregnancy, tail-cuff blood pressure. The class given is in vivo. To be noted: vasopressin 24 ng/hr s.c. compared to 2.4 ng/hr s.c., P=0.03. On the procedure: Method: Wildtype C57Bl/6J female mice were chronically infused with varied doses of arginine vasopressin (Sigma-Aldrich), via subcutaneous osmotic minipumps (Alzet), for three days preceding mating, then through gestational day 16. Mice were first acclimated to the restraint devices used for recordings for one week (“week −3”) before data recordings began. Blood pressure was assessed daily for two weeks preceding minipump implantation, through gestational day 16. Blood pressure was measured using tail-cuff plethysmography (Visitech). On any given recording day, the mouse was restrained and lightly warmed throughout the (30 min) recording period. Thirty consecutive 1 min inflation/deflation cycles were performed and successful pressure determinations were averaged within recording period for each mouse. Data sets from individual days with fewer than 10 successful determinations were excluded from analyses. Daily blood pressure values were averaged within animal for each week for statistical comparisons.

Each structure is given as a SMILES string.

For the compound `NC(=O)CC[C@@H]1NC(=O)[C@H](Cc2ccccc2)NC(=O)[C@H](Cc2ccc(O)cc2)NC(=O)[C@@H](N)CSSC[C@@H](C(=O)N2CCC[C@H]2C(=O)N[C@@H](CCCN=C(N)N)C(=O)NCC(N)=O)NC(=O)[C@H](CC(N)=O)NC1=O` [Arginine vasopressin], the “blood pressure, third week of pregnancy (gestational days 14-16)” value is recorded as “increased blood pressure”. Further, the “blood pressure, third week of pregnancy (gestational days 14-16)” value (listed as AVP) is listed as “late-pregnancy increase in blood pressure”.
